# Values quoted from earlier work in paper PMC6376154 (International Journal for Parasitology: Drugs and Drug …, 2019).
# Like-named read-outs stand apart in the source and are kept apart here.
# Test system: P. falciparum 3D7 asexual blood stage
# Details: cited from earlier work
# [1] = ChEMBL-NTD value per source (GNF, GSK, StJude), several values in a cell follow the order of the sources, read-out: CHEMBL EC50
# [2] = MMV Malaria Box data sheet, ref MMV data sheets
# [3] = MMV Malaria Box data sheet, ref MMV data sheets, read-out: EC50_nM
# [4] = source GNF, ref ChEMBL_NTD, read-out: CHEMBL EC50
# [5] = source GSK, ref ChEMBL_NTD, read-out: CHEMBL EC50
# [6] = MMV Malaria Box data sheet (supplement mmc2.xls), ref MMV data sheet
# [7] = value(s) per source (GSK, GNF, StJude), separated by semicolon, ref ChEMBL-NTD, read-out: CHEMBL EC50
# [8] = MMV Malaria Box data sheet (supplement mmc2.xls), ref MMV data sheet, read-out: EC50_nM
# [9] = MMV Malaria Box sheet, ref MMV data sheets
# [10] = MMV Malaria Box sheet, ref MMV data sheets, read-out: EC50_nM
compound,measurement,setting,value
CCCn1c(=N)c(C(=O)NC2CCCCC2)cc2c(=O)n3cccc(C)c3nc21 [MMV008829],EC50,[1],460 nM
CCOc1cc2c(cc1OCC)C(c1cc(OC)c(O)cc1Cl)NCC2 (stereo not drawn) [MMV008956],percent_inh @ 5 uM,[2],98%
same,EC50,[3],370 nM
same,EC50,[4],362 nM
same,EC50,[5],748 nM
O=C(CCc1ccccc1)c1ccccc1OCC(O)CN1CCCCC1 (stereo not drawn) [MMV009015],EC50,[1],881 nM
CCN(CC)c1ccc(NC(=O)c2cccs2)cc1 [MMV009060],percent_inh @ 5 uM,[6],88%
same,EC50,[7],414 nM
OC(CNC1CCCCC1)Cn1c2ccccc2c2ccccc21 (stereo not drawn) [MMV009063],percent_inh @ 5 uM,[2],93%
same,EC50,[3],293 nM
same,EC50,[4],483 nM
same,EC50,[5],991 nM
O=C1c2ccc3c4c(ccc(c24)C(=O)N1CCCCO)C(=O)N(CCCCO)C3=O [MMV009085],EC50,[1],354 nM
CCN(CC)S(=O)(=O)c1ccc(-c2csc(Nc3ccc(C)c(C)c3)n2)cc1 [MMV009108],percent_inh @ 5 uM,[6],97%
same,EC50,[8],641 nM
same,EC50,[7],2100 nM
CC1CCN(Cc2c(O)ccc3cc(-c4nc5ccccc5s4)c(=O)oc23)CC1 [MMV009127],percent_inh @ 5 uM,[9],91%
same,EC50,[10],1130 nM
same,EC50,[4],12500 nM
Cc1cc(Nc2ccc3ccccc3c2)n2ncnc2n1 [MMV011099],EC50,[3],242 nM
same,EC50,[5],173 nM
Cc1cc(Nc2ccc(Cl)cc2)n2nc(C(F)(F)F)nc2n1 [MMV011256],EC50,[3],212 nM
same,EC50,[5],117 nM
Cc1cc(C)cc(Nc2cc(C)nc3nc(C(F)(F)F)nn23)c1 [MMV011259],EC50,[3],85.7 nM
CC(C)(C)c1ccc(C2CC3=Nc4ccccc4N(C(=O)c4ccccc4Cl)C(c4ccc(F)cc4)C3=C(O)C2)cc1 (stereo not drawn) [MMV011436],EC50,[1],2630 nM
COC(=O)c1ccc(C2C3=C(O)CC(c4ccc(F)cc4)CC3=Nc3ccccc3N2C(=O)c2ccccc2)cc1 (stereo not drawn) [MMV011438],EC50,[1],332 nM
COc1ccc(C(=O)Nc2nonc2-c2ccc(OC)c(OC)c2)cc1Cl [MMV011567],percent_inh @ 5 uM,[2],92%
same,EC50,[3],516 nM
same,EC50,[4],1780 nM
same,EC50,[5],675 nM
CCOC(=O)C1CCN(C(=O)CN2C(=O)c3ccccc3C2c2c[nH]c3ccccc23)CC1 (stereo not drawn) [MMV011576],percent_inh @ 5 uM,[9],98%
same,EC50,[10],1180 nM
same,EC50,[4],519 nM
Oc1ccccc1CN1CCN(C(c2ccccc2)c2ccccc2)CC1 [MMV011795],percent_inh @ 5 uM,[6],97%
same,EC50,[8],611 nM
Oc1ccc2ccccc2c1CNc1nc2ccccc2[nH]1 [MMV011832],EC50,[1],652 nM
Nc1ccc(-c2nc3cc(Oc4ccc(Oc5ccc6[nH]c(-c7ccc(N)cc7)nc6c5)cc4)ccc3[nH]2)cc1 [MMV011895],EC50,[1],288 nM
COc1cccc(Nc2nc(NCCO)c3ccccc3n2)c1 [MMV011944],EC50,[8],854 nM
Cc1cc(NC(=O)c2ccc(-c3ccccc3)cc2)no1 [MMV018984],percent_inh @ 5 uM,[6],95%
same,EC50,[8],693 nM
same,EC50,[7],1020 nM
COCCNCC(O)Cn1c2ccc(Cl)cc2c2cc(Cl)ccc21 (stereo not drawn) [MMV019017],EC50,[8],1010 nM
same,EC50,[7],52 nM
COc1cccc(-c2nn(C)c3sc(C(=O)NCCN4CCN(c5ccccc5F)CC4)cc23)c1 [MMV019064],percent_inh @ 5 uM,[6],91%
same,EC50,[8],1300 nM
same,EC50,[7],955 nM
COc1ccccc1CNC(=O)CCn1c(=O)[nH]c2ccsc2c1=O [MMV019066],percent_inh @ 5 uM,[2],67%
same,EC50,[3],140 nM
same,EC50,[5],1040 nM
CCN1CCN(c2cc(C)c3cc(NC(=O)c4ccc(OC)c(OC)c4)ccc3n2)CC1 [MMV019074],percent_inh @ 5 uM,[6],99%
same,EC50,[7],1030 nM
Cc1cccc(Nc2nc(N)c3ccccc3n2)c1 [MMV019110],percent_inh @ 2 uM,"2 uM, MMV Malaria Box data sheet, ref MMV data sheets",97%
same,EC50,[3],400 nM
same,EC50,[5],574 nM
CCN(Cc1ccccc1)C1CCN(Cc2cc(Br)ccc2O)CC1 [MMV019127],percent_inh @ 5 uM,[6],97%
same,EC50,[8],625 nM
same,EC50,[7],823 nM
COc1cccc(Nc2nc(N)c3ccccc3n2)c1 [MMV019199],EC50,[1],934 nM
O=C(Nc1ccc(-c2nc3cc4ccccc4cc3[nH]2)cc1)c1cccc(Br)c1 [MMV019241],percent_inh @ 5 uM,[9],93%
same,EC50,[10],450 nM
same,EC50,[5],363 nM
COc1ccc(-n2ccnc2SCC(=O)Nc2cc(C)ccc2C)c(OC)c1 [MMV019258],percent_inh @ 5 uM,[2],95%
same,EC50,[3],170 nM
same,EC50,[5],205 nM
Cc1sc2ncnc(Sc3nc4ccccc4[nH]3)c2c1C [MMV019266],percent_inh @ 5 uM,[9],100%
same,EC50,[10],614 nM
same,EC50,[5],255 nM
Cn1c(=O)c2cc(C(=O)NCCCN3CCCCCC3)sc2c2ccccc21 [MMV019313],percent_inh @ 5 uM,[6],97%
same,EC50,[8],669 nM
same,EC50,[7],689 nM
CCC1(C)CC(CCNCc2ccccc2O)(c2ccc(C)cc2)CCO1 (stereo not drawn) [MMV019406],percent_inh @ 5 uM,[2],97%
same,EC50,[3],142 nM
same,EC50,[5],38.8 nM
c1ccc2c(NCCCCCCNc3c4c(nc5ccccc35)CCCC4)c3c(nc2c1)CCCC3 [MMV019555],percent_inh @ 5 uM,[9],100%
same,EC50,[10],376 nM
same,EC50,[5],196 nM
COc1ccc(N2CCN(C(CNC(=O)C3CCCCC3)c3ccc4c(c3)OCO4)CC2)cc1 (stereo not drawn) [MMV019662],percent_inh @ 5 uM,[6],97%
same,EC50,[8],1110 nM
same,EC50,[7],566 nM
O=C(Nc1ccc(N2CCN(Cc3ccccc3)CC2)cc1)c1cccs1 [MMV019670],percent_inh @ 5 uM,[6],59%
same,EC50,[8],1080 nM
same,EC50,[7],769 nM
COc1ccc(C2NCCc3c2[nH]c2ccccc32)cc1CN1CCN(c2ccc(F)cc2)CC1 (stereo not drawn) [MMV019690],percent_inh @ 5 uM,[9],97%
same,EC50,[10],934 nM
same,EC50,[5],776 nM
O=C(Nc1ccc(N2CCCCC2)c(Cl)c1)c1ccc(Br)o1 [MMV019700],percent_inh @ 5 uM,[6],96%
same,EC50,[8],735 nM
same,EC50,[7],549 nM
Cc1[nH]c(-c2ccc(F)cc2)cc1C(=O)NC1CCN(Cc2ccccc2)CC1 [MMV019738],percent_inh @ 5 uM,[6],99%
same,EC50,[8],771 nM
same,EC50,[7],1130 nM
Cc1ccc(C)c(Cn2c(N3CCC(C(=O)NCc4cccs4)CC3)nc3ccccc32)c1 [MMV019741],percent_inh @ 5 uM,[9],97%
same,EC50,[10],1330 nM
same,EC50,[5],938 nM
Cc1ccc(Cl)cc1N1CCN(CCCNC(=O)C2CCN(c3nc4ccccc4[nH]3)CC2)CC1 [MMV019746],percent_inh @ 5 uM,[6],97%
same,EC50,[8],1330 nM
same,EC50,[7],895 nM
COc1ccc(C(=O)Nc2ccc3nc(N4CCCCC4)cc(C)c3c2)cc1OC [MMV019758],percent_inh @ 5 uM,[6],76%
same,EC50,[7],994 nM
COc1cccc(C(=O)Nc2ccc(-c3nc4ccccc4[nH]3)cc2)c1 [MMV019762],percent_inh @ 5 uM,[9],83%
same,EC50,[5],802 nM
Cc1cc(C)c2nc(N3CCC(C(=O)NCCCN4CCC(N5CCCCC5)CC4)CC3)sc2c1 [MMV019780],percent_inh @ 5 uM,[6],98%
same,EC50,[8],697 nM
same,EC50,[7],838 nM
Fc1ccc2[nH]c3c(NCCCN4CCOCC4)ncnc3c2c1 [MMV019871],percent_inh @ 5 uM,[2],98%
same,EC50,[3],345 nM
same,EC50,[5],714 nM
O=C(NC1CCN(Cc2ccccc2)CC1)c1cc(C(=O)NC2CCN(Cc3ccccc3)CC2)cc(C(=O)NC2CCN(Cc3ccccc3)CC2)c1 [MMV019881],EC50,[1],1040 nM
Clc1cc(Br)ccc1-c1ccc(CNCC2CCNCC2)o1 [MMV019918],percent_inh @ 5 uM,[6],96%
same,EC50,[8],800 nM
same,EC50,[7],1510 nM
O=C(NCCCN1CCC(N2CCCCC2)CC1)C1=Cc2cc(Br)ccc2OC1 [MMV019995],percent_inh @ 5 uM,[9],99%
same,EC50,[10],563 nM
same,EC50,[5],853 nM
Cc1cc(N(C)C)nc(Nc2ccc(NC(=O)Nc3ccccc3)cc2)n1 [MMV020243],EC50,[1],134 nM
O=C(NC1CCN(Cc2ccccc2)CC1)c1cc(-c2ccncc2)nc2ccc(Cl)cc12 [MMV020275],percent_inh @ 5 uM,[6],92%
same,EC50,[8],1020 nM
same,EC50,[7],920 nM
COc1ccc(-c2cn3c(C(=O)Nc4ccccc4Cl)c(-c4ccccc4)c4c3n2CCCC4)cc1 [MMV020403],EC50,[1],792 nM
CCn1c(CN2CCN(Cc3ccccc3)CC2)nc2cc(NC(=O)c3cccs3)ccc21 [MMV020439],percent_inh @ 5 uM,[2],97%
same,EC50,[3],512 nM
same,EC50,[5],402 nM
O=C(NC1CCN(Cc2ccccc2)CC1)c1cc(-c2cccnc2)nc2ccc(Cl)cc12 [MMV020490],percent_inh @ 5 uM,[9],91%
same,EC50,[10],1010 nM
same,EC50,[5],759 nM
CC1CN(C(=O)c2sc3ccccc3c2Cl)CC(C)O1 (stereo not drawn) [MMV020492],percent_inh @ 5 uM,[2],95%
same,EC50,[3],25.5 nM
same,EC50,[5],87.9 nM
CNCCCNc1ccnc2cc(Cl)ccc12 [MMV020500],percent_inh @ 5 uM,[2],98%
same,EC50,[3],82.2 nM
same,EC50,[5],62.4 nM
CN(C)CCCNCc1ccc(-c2ccc(F)c(Cl)c2)o1 [MMV020505],percent_inh @ 5 uM,[9],96%
same,EC50,[10],876 nM
same,EC50,[5],802 nM
CCN1CCN(Cc2ccc(NC(=O)c3cc4ccc5cccnc5c4[nH]3)cc2)CC1 [MMV020548],percent_inh @ 5 uM,[2],70%
same,EC50,[3],361 nM
same,EC50,[5],848 nM
CC1CCN(Cc2ccc(NC(=O)c3cc4ccc5cccnc5c4[nH]3)cc2)CC1 [MMV020549],percent_inh @ 5 uM,[2],97%
same,EC50,[3],274 nM
same,EC50,[5],779 nM
O=C(Nc1ccc(CN2CCOCC2)cc1)c1ccc(-c2cc(Cl)ccc2Cl)o1 [MMV020651],percent_inh @ 5 uM,[9],97%
same,EC50,[10],1940 nM
same,EC50,[5],613 nM
CCC(O)c1ccc(Br)cc1NC(=O)c1cccc(Cl)c1 (stereo not drawn) [MMV020654],percent_inh @ 5 uM,[6],97%
same,EC50,[8],640 nM
same,EC50,[7],1020 nM
CC(=O)Nc1nnc(SCc2c(C)cc(C(C)(C)C)cc2C)s1 [MMV020700],percent_inh @ 5 uM,[6],96%
same,EC50,[8],871 nM
same,EC50,[7],704 nM
COc1cc(-c2nc(-c3ccccc3)c(-c3ccccc3)[nH]2)cc(OC)c1O [MMV020750],EC50,[1],774 nM
Oc1ccccc1CNCC12CC3CC(CC(C3)C1)C2 [MMV020788],percent_inh @ 5 uM,[2],96%
same,EC50,[3],22.6 nM
same,EC50,[5],279 nM
